Series [1] has as its system leukemia (L-SR) cell line. Nature of the series: MTT cytotoxicity assay, L-SR. The conditions noted are these: read-out: Cytotoxicity IC50 L-SR, 48 h. A general note: Tetrazolium assays rely on reduction of a dye to a coloured formazan, in cell work by metabolically active cells.
Description: (§1) The newly synthesized compounds were evaluated for their in vitro growth inhibition of three human tumor cell lines representing different tumor types, namely, breast adenocarcinoma (MCF-7), liver hepatocellular carcinoma (Hep3B) and leukemia-SR. […] The breast tumor cell line (MCF-7), hepatic tumor cell line (Hep3B) and leukemia-SR cell line were obtained from American Type Culture Collection. The cells were cultured using Dulbecco's modified Eagle's medium (DMEM) (Invitrogen/Life Technologies) supplemented with 10% fetal bovine serum (FBS) (Hyclone), 10 μg mL^−1 of insulin (Sigma), and 1% penicillin–streptomycin. […] For 24 hours before to the MTT experiment, plate cells (densities of 1.2–1.8 × 10 000 cells per well) were layered in a 96-well plate containing 100 μL of the tested chemical per well and 100 μL of full growth media.
(§2) The culture medium was transferred to a centrifuge tube. […] Then 2.0 to 3.0 mL of Trypsin EDTA solution was added to the flask, and the cells were observed using an inverted microscope until the cell layer became dispersed (usually within 5–15 min). After that, 6.0 to 8.0 mL of complete growth medium was added and the cells were aspirated by gently pipetting. The cell suspension was transferred to the centrifuge tube with the medium and cells from step 1 and centrifuged at approximately 125 g for 5–10 min. The supernatant was discarded. The cell pellet was re-suspended in a fresh growth medium. Appropriate aliquots of the cell suspension were added to new culture vessels.
(§3) For the best results, the cells in the log phase of growth should be employed and the final cell number should not exceed 10^6 cells per cm^2. Each test should include a blank containing a complete medium without cells. Cultures from the incubator were transferred into a laminar flow hood or other sterile work area. […] Reconstituted MTT was added in an amount equal to 10% of the culture medium volume. Cultures were returned to the incubator for 2–4 h depending on the cell type and maximum cell density. An incubation period of 2 h is generally adequate but may be lengthened for low cell densities or cells with lower metabolic activity. The incubation times should be consistent when making comparisons. […] Occasionally, especially in dense cultures, pipetting up and down may be required to completely dissolve the MTT formazan crystals. The absorbance was spectrophotometrically measured at a wavelength of 570 nm. The background absorbance of multiwell plates was measured at 690 nm and subtracted from the 450 nm measurement. Tests performed in multiwell plates might be read using an appropriate type of plate reader or the contents of individual wells might be transferred to appropriate size cuvettes for spectrophotometric measurement.
For series [2], the system named is human breast cancer (MCF-7) cell line. Nature of the series: MTT cytotoxicity assay, MCF-7. The conditions noted are these: read-out: Cytotoxicity IC50 MCF-7.
Description: as §1, §2, §3
The subject of series [3] is human liver cancer (Hep3B) cell line. The series can be described thus: MTT cytotoxicity assay, Hep3B. Conditions: read-out: Cytotoxicity IC50 Hep3B, 48 h.
Description: as §1, §2, §3
Series [4] concerns the target human DNA topoisomerase II beta (Topo2β) (Homo sapiens, UniProt Q02880). The series can be described thus: Topo2β polymerase inhibition assay (ELISA), Hep3B. It counts as cell-based. Details: concentration or dose not given beside the values. Conditions: against Hep3B cell line. The method, then:
This assay was employed to predict the inhibitory effects of novel compounds on Topo2β. […] The melting points were determined using a Stuart apparatus, and the values given are uncorrected. IR spectra were recorded using a Shimadzu IR 4000s spectrophotometer (KBr, cm^−1) at the College of Pharmaceutical Sciences and Drug Manufacturing, Misr University for Science and Technology, Egypt. ^1H NMR spectra were recorded using a Bruker 400 MHz (Bruker Corp., Billerica, MA, USA) spectrophotometer, Faculty of Pharmacy, Cairo University, Cairo, Egypt and the Centre of Drug Discovery Research & Development, Faculty of Pharmacy, Ain shams University, and a Jeol 500 MHz spectrophotometer at the National Research Center. Chemical shifts were recorded in ppm on a δ scale, coupling constants (J) were given in Hz and peak multiplicities are designed as follows: s, singlet; d, doublet; t, triplet; m, multiplet. ^13C NMR spectra were recorded using a Bruker 100 MHz spectrophotometer, Faculty of Pharmacy, Cairo University and the Centre of Drug Discovery Research & Development, Faculty of Pharmacy, Ain shams University, and a Jeol 500 MHz spectrophotometer at the National Research Center. Chemical shifts were recorded in ppm on a δ scale. Microanalyses for C, H, and N were carried out at the Regional Center for Mycology and Biotechnology, Faculty of Pharmacy, Al-Azhar University. C, H, and N analysis values were accepted within the range of ± 0.4 of the calculated percentages. […] The used eluting system was methanol : hexane with a ratio of 9.5/0.5 respectively. Scientific microwave MAS-II was used under 300 W microwave irradiation, operating at 80 °C. The evaluation of the cytotoxic activity was performed at VACSERA, Giza, Egypt, using MCF-7, Hep3B and leukemia SR cell lines. Enzyme assay, cell cycle analysis, apoptosis and caspase-3 assay were carried out at VACSERA, Giza, Egypt using an SEB870Hu 96 Tests Enzyme-linked Immunosorbent Assay Kit for Topoisomerase II Beta.
This assay employs a quantitative sandwich enzyme immunoassay technique. […] Antibody specific for Topo2β was pre-coated onto a microplate. Standards and samples were pipetted into the wells and any Topo2β present was bound by the immobilized antibody. After removing any unbound substances, a biotin-conjugated antibody specific for Topo2β was added to the wells. After washing, avidin-conjugated Horseradish Peroxidase (HP) was added to the wells. Following washing to remove any unbound avidin–enzyme reagent, a substrate solution was added to the wells and color develops in proportion to the amount of Topo2β bound in the initial step. The color development was stopped, and the intensity of the color was measured. […] The sensitivity of this assay or lower limit of detection (LLD) is defined as the lowest protein concentration that could be differentiated from zero. The mean OD value of 20 replicates of the zero standard was determined and added to their three standard deviations.[64]
On the technique in general: An ELISA detects its analyte on a solid surface through an enzyme-linked reagent.

The next series can be described thus: in vitro. Conditions: human, THLE2 normal liver cells.
The mark [5] stands for this setting: MCF-7 cell line, MTT assay, 48 h.

Experimental findings from paper PMC11369887 (RSC Advances, 2024) are described below.

Like-named read-outs stand apart in the source and are kept apart here.

Chain of human DNA topoisomerase II beta (Topo2β) (Q02880 whole entry): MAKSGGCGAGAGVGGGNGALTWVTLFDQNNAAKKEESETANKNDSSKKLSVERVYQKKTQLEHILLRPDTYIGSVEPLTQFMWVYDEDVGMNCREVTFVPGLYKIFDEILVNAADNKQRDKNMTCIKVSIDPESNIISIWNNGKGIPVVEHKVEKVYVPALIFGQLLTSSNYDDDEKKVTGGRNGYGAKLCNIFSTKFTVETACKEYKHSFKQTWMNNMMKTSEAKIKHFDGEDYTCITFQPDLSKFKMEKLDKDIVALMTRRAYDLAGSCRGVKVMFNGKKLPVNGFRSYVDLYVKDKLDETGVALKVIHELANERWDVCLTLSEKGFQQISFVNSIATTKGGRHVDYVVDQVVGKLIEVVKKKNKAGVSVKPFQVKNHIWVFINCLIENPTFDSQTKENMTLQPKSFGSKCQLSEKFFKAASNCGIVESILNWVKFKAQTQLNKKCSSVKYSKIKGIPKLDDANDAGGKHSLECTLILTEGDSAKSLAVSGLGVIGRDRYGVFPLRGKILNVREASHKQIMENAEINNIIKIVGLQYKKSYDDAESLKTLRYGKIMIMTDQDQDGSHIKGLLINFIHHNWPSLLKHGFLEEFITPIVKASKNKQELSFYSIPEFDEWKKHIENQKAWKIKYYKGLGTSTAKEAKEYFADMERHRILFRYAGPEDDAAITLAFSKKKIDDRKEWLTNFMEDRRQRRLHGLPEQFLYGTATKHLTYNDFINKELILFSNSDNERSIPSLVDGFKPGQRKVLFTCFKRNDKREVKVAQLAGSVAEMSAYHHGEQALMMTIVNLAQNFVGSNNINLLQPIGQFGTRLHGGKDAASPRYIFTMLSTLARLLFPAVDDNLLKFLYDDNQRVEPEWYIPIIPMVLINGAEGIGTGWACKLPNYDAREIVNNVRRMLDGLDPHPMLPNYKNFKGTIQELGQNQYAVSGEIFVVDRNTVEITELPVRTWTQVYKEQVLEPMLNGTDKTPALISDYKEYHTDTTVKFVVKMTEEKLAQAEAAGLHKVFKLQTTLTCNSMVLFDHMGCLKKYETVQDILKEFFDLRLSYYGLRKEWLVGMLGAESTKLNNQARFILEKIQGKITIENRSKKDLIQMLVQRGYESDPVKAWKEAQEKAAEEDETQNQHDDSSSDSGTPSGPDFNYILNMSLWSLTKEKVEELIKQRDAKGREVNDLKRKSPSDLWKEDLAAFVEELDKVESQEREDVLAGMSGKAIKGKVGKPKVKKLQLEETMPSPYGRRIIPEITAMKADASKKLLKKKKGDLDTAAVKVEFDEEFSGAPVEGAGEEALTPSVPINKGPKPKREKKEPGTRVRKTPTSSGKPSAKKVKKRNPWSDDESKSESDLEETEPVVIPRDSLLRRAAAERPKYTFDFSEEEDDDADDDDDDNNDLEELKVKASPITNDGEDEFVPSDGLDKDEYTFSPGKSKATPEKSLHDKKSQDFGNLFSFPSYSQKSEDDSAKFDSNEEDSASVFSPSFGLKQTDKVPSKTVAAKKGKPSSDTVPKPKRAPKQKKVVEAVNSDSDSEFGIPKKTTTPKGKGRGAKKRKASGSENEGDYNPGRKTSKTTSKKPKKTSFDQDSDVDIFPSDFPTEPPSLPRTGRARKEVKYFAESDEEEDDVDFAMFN
Description for in vitro: The following normal cell lines were selected: normal breast MCF-10a, normal liver THLE2 and normal lymphocyte PCS-800-011. […] Moreover, the toxic effect of representative target compounds was evaluated on normal breast (MCF10a), normal liver (THLE2) and normal lymphocyte (PCS-800-011) cell lines using an MTT assay. […] The cells were cultured using Dulbecco's modified Eagle's medium (DMEM) (Invitrogen/Life Technologies) supplemented with 10% fetal bovine serum (FBS) (Hyclone), 10 μg mL^−1 of insulin (Sigma), and 1% penicillin–streptomycin. All chemicals and reagents were purchased from Sigma-Aldrich or Invitrogen. For 24 hours before to the MTT experiment, plate cells (densities of 1.2–1.8 × 10 000 cells per well) were layered in a 96-well plate containing 100 μL of the tested chemical per well and 100 μL of full growth media.
as §2, §3

Take “2-[(9-Fluoro-3-methyl-10-(4-methylpiperazin-1-yl)-7-oxo-2,3-dihydro-7H-[1,4]oxazino[2,3,4-ij]quinoline-6-carbonyl)]-N-(1-(4-methoxyphenyl)ethylidene)hydrazine-1-carbothioamide [Compound 12a]”: the IC50 (commonly the point on the concentration scale where inhibition reaches its midpoint) in series [1] (L-SR cell line, MTT assay) was found to be 23.8 ± 1.43 µM; in series [2] (setting [5]) it was 45.4 ± 2.1 µM; in series [3] (Hep3B cell line, MTT assay), 23.6 ± 1.09 µM.
As to “2-[(9-Fluoro-3-methyl-10-(4-methylpiperazin-1-yl)-7-oxo-2,3-dihydro-7H-[1,4]oxazino[2,3,4-ij]quinoline-6-carbonyl)]N-(4-methoxybenzylidene)hydrazine-1-carbothioamide [Compound 11b]”, the half-inhibitory concentration (IC50) in series [1] (L-SR cell line, MTT assay) was determined as 40.3 ± 2.43 µM; in series [2] (setting [5]) it was 15.5 ± 0.72 µM; in series [3] (Hep3B cell line, MTT assay), 14.6 ± 0.67 µM.
Consider `CC1COc2c(N3CCN(C)CC3)c(F)cc3c(=O)c(C(=O)NN=Cc4ccc(Cl)cc4)cn1c23` (stereo not shown) [Compound 3a, N′-(4-Chlorobenzylidene)-9-fluoro-3-methyl-10-(4-methylpiperazin-1-yl)-7-oxo-2,3-dihydro-7H-[1,4]oxazino[2,3,4-ij]quinoline-6-carbohydrazide], for which the melting point (as a rule, the temperature of the solid-liquid transition) lay within 260 to 262 °C. Further, the half-inhibitory concentration (IC50) in series [1] (Homo sapiens) came out at 2.75 ± 0.07 µM. Moreover, the IC50 in series [2] (Homo sapiens, MCF7, 48 h) was 24.8 ± 1.61 µM. Moreover, the IC50 in series [3] (Homo sapiens, Hep3B) stood at 24.7 ± 0.81 µM.
In the same order, the values of `CC1COc2c(N3CCN(C)CC3)c(F)cc3c(=O)c(C(=O)NN=Cc4ccc(F)cc4)cn1c23` (stereo not shown) [Compound 3b, 9-Fluoro-N′-(4-fluorobenzylidene)-3-methyl-10-(4-methylpiperazin-1-yl)-7-oxo-2,3-dihydro-7H-[1,4]oxazino[2,3,4-ij]quinoline-6-carbohydrazide] are 266 to 268 °C, 5.64 ± 0.27 µM, 63 ± 2.8 µM and 12 ± 0.39 µM.
In the same order, the values of `CC1COc2c(N3CCN(C)CC3)c(F)cc3c(=O)c(C(=O)NN=C4C(=O)Nc5ccccc54)cn1c23` (stereo not shown) [Compound 4a, 9-Fluoro-3-methyl-10-(4-methylpiperazin-1-yl)-7-oxo-N′-(2-oxoindolin-3-ylidene)-2,3-dihydro-7H-[1,4]oxazino[2,3,4-ij]quinoline-6-carbohydrazide] are over 300 °C, 49.6 ± 2.99 µM, 39.1 ± 1.81 µM and 18.7 ± 0.87 µM.
In the same order, the values of `CC1COc2c(N3CCN(C)CC3)c(F)cc3c(=O)c(C(=O)NN=C4C(=O)Nc5ccc(Br)cc54)cn1c23` (stereo not shown) [Compound 4b, N′-(5-Bromo-2-oxoindolin-3-ylidene)-9-fluoro-3-methyl-10-(4-methylpiperazin-1-yl)-7-oxo-2,3-dihydro-7H-[1,4]oxazino[2,3,4-ij]quinoline-6-carbohydrazide] are over 300 °C, 10.9 ± 0.66 µM, 5.59 ± 0.26 µM and 8.79 ± 0.41 µM.
In turn, `CC1COc2c(N3CCN(C)CC3)c(F)cc3c(=O)c(C(=O)NN=C4C(=O)Nc5ccc(Cl)cc54)cn1c23` (stereo not shown) [Compound 4c, N′-(5-Chloro-2-oxoindolin-3-ylidene)-9-fluoro-3-methyl-10-(4 methylpiperazin-1-yl)-7-oxo-2,3-dihydro-7H-[1,4]oxazino[2,3,4-ij]quinoline-6-carbohydrazide] displayed a melting point of over 300 °C. Further, the IC50 in series [1] (Homo sapiens) came to 4.32 ± 0.26 µM. Further, in series [2] (Homo sapiens, MCF7, 48 h), the IC50 came to 15.8 ± 0.76 µM. The IC50 in series [3] (Homo sapiens, Hep3B) amounted to 36.3 ± 1.68 µM.
`CC1COc2c(N3CCN(C)CC3)c(F)cc3c(=O)c(C(=O)N4NC(=O)CC4=O)cn1c23` (stereo not shown) [Compound 8, 9-Fluoro-6-((3,5-dioxopyrazolidine-1-yl)carbonyl)-3-methyl-10-(4-methylpiperazin-1-yl)-2,3-dihydro-7H-[1,4]oxazino[2,3,4-ij]quinolin-7-one] came in with a melting point of 228 to 230 °C. The IC50 in series [1] (Homo sapiens) stood at 5.49 ± 0.33 µM. In addition, the IC50 in series [2] (Homo sapiens, MCF7, 48 h) came out at 3.51 ± 0.16 µM. Further, the IC50 in series [3] (Homo sapiens, Hep3B) was found to be 7.69 ± 0.36 µM.
For `CC1COc2c(N3CCN(C)CC3)c(F)cc3c(=O)c(C(=O)NN4C(=O)c5ccccc5C4=O)cn1c23` (stereo not shown) [Compound 9, 9-Fluoro-3-methyl-10-(4-methylpiperazin-1-yl)-7-oxo-N-(1,3-dioxoisoindolin-2-yl)-2,3-dihydro-7H-[1,4]oxazino[2,3,4-ij]quinoline-6-carboxamide], in that order: 138 to 140 °C, 23.4 ± 1.41 µM, 19.3 ± 0.9 µM and 42.2 ± 1.96 µM.
In the case of `CC1COc2c(N3CCN(C)CC3)c(F)cc3c(=O)c(C(=O)NNC(N)=S)cn1c23` (stereo not shown) [Compound 10, 2-[(9-Fluoro-3-methyl-10-(4-methylpiperazin-1-yl)-7-oxo-2,3-dihydro-7H-[1,4]oxazino[2,3,4-ij]quinoline-6-carbonyl)]hydrazin-1-carbothioamide], the melting point is over 300 °C. Also, in series [1] (Homo sapiens), the IC50 was found to be 66 ± 3.98 µM. For the same molecule, the IC50 in series [2] (Homo sapiens, MCF7, 48 h) came out at 95.4 ± 4.42 µM. In addition, the IC50 in series [3] (Homo sapiens, Hep3B) stood at 37.9 ± 1.76 µM.
For `CC1COc2c(N3CCN(C)CC3)c(F)cc3c(=O)c(C(=O)N4CCOCC4)cn1c23` (stereo not shown) [Compound 13b, 9-Fluoro-3-methyl-10-(4-methylpiperazin-1-yl)-6-((morpholin-4-yl)carbonyl)-2,3-dihydro-7H-[1,4]oxazino[2,3,4-ij]quinolin-7-one], in that order: 235 to 237 °C, 18.3 ± 1.11 µM, 26.8 ± 1.24 µM and 11.2 ± 0.52 µM.
In the case of `CC1COc2c(N3CCN(C)CC3)c(F)cc3c(=O)c(C(=O)N4CCN(C)CC4)cn1c23` (stereo not shown) [Compound 13c, 9-Fluoro-3-methyl-10-(4-methylpiperazin-1-yl)-6-((4-methylpiperazin-1-yl)carbonyl)-2,3-dihydro-7H-[1,4]oxazino[2,3,4-ij]quinolin-7-one], the melting point was 239 to 241 °C. This molecule also gave a Topo2β% inhibition in series [4] of 70.93%. In addition, in “in vitro”, 24 ± 1.35 µM corresponded to half-maximal inhibition (IC50 at 48 h). Besides, the IC50 in series [1] (Homo sapiens) stood at 13.6 ± 0.82 µM. The IC50 in series [2] (Homo sapiens, MCF7, 48 h) worked out at 7.26 ± 0.34 µM. Further, the IC50 in series [3] (Homo sapiens, Hep3B) was 1.04 ± 0.05 µM.
`CC1COc2c(N3CCN(C)CC3)c(F)cc3c(=O)c(C(=O)N4CCN(c5ccccc5)CC4)cn1c23` (stereo not shown) [Compound 13d, 9-Fluoro-3-methyl-10-(4-methylpiperazin-1-yl)-6-((4-phenylpiperazin-1-yl)carbonyl)-2,3-dihydro-7H-[1,4]oxazino[2,3,4-ij]quinolin-7-one] returned a melting point of 246 to 248 °C. The IC50 in series [1] (Homo sapiens) worked out at 15.1 ± 0.91 µM. Also, the IC50 in series [2] (Homo sapiens, MCF7, 48 h) amounted to 9.59 ± 0.44 µM. In addition, in series [3] (Homo sapiens, Hep3B), the IC50 stood at 24.5 ± 1.14 µM.
For the molecule “N-(1-(3,4-Dimethoxyphenyl)ethylidene)-2-[(9-fluoro-3-methyl-10-(4-methylpiperazin-1-yl)-7-oxo-2,3-dihydro-7H-[1,4]oxazino[2,3,4-ij]quinoline-6-carbonyl)]hydrazine-1-carbothioamide [Compound 12b]”, the IC50 in series [1] (L-SR cell line, MTT assay) came out at 34.2 ± 2.06 µM; in series [2] (setting [5]), 5.21 ± 0.24 µM; in series [3] (Hep3B cell line, MTT assay), 17.6 ± 0.81 µM.
As for “N-(4-Chlorobenzylidene)-2-[(9-fluoro-3-methyl-10-(4-methylpiperazin-1-yl)-7-oxo-2,3-dihydro-7H-[1,4]oxazino[2,3,4-ij]quinoline-6-carbonyl)]hydrazine-1-carbothioamide [Compound 11a]”, the half-maximal inhibitory concentration (IC50) in series [1] (L-SR cell line, MTT assay) came out at 19.9 ± 1.2 µM; in series [2] (setting [5]) it was 54.5 ± 2.52 µM; in series [3] (Hep3B cell line, MTT assay) it was 80.2 ± 3.71 µM.
